*1 amine or outer side, *2 acyl side, *3 side chain or, on linkers, in order; H or OH if unused. Where a SMILES comes first, the peptide text is derived from it. Bridges are numbered along the chain shown (N, C = ends). Side-chain parts run from the residue outwards. The star is where a group is joined. C20 diacid = O=C(O)CCCCCCCCCCCCCCCCCCC(=O)*; γGlu = O=C(O)[C@H](CCC(=O)[*:2])N[*:1]; AEEA = NCCOCCOCC(=O)O
How the values were obtained:
[1] = target: T1, Amylin 3(a) receptor (human calcitonin receptor (CTa) and RAMP-3) (Homo sapiens, UniProt O60896+P30988); test: Luciferase assay (III), BHK Amylin 3(a)//CRE-luc cells; type: cell-based; details: BHK cells with Amylin 3(a) receptor and CRE luciferase reporter, 4 hours incubation; read-out: Potency Luciferase
T1 construct: expressed in transfected cells; host or cells: BHK570 cells, stably transfected with a CRE-luciferase reporter
Outline: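 Read-out is CRE-driven luciferase luminescence, taken 30 min after LucLite addition at room temperature. Compounds were incubated 4 h at 37° C in assay medium (10% FBS, 10 mM Hepes, pH 7,4). The cell line is BHK570 co-transfected with human calcitonin receptor CTa and RAMP-3, seeded overnight before use.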

[2] = Assay (V) PK - determination of T½ in mini-pig; type: in vivo; details: minipig, sc; terminal plasma half-life, subcutaneous, approx 2 nmol/kg, male Göttingen mini-pigs
Method: Assay (V) PK—Determination OF T½ in Mini-Pig
T½ is the terminal half-life=ln 2/λz of a compound in plasma. λz is the first order rate constant associated with the terminal (log-linear) portion of the plasma concentration-time curve and is estimated by linear regression of time vs. log concentration.
T½ values of the amylin analogues of the invention is determined by pharmacokinetic studies in male Göttingen mini-pigs from Ellegaard Göttingen Minipigs ApS and the principles of laboratory animal care are followed.
An acclimatization period of approximately 6-10 days was allowed before the animals entered the study. At start of the acclimatization period the mini-pigs were about 5 to 12 months old and in the weight range of 7-35 kg. The mini-pigs had two central venous catheters inserted which were used for blood sampling.
The studies were conducted in an animal room which was illuminated to give a cycle of approx 12 hours light and 12 hours darkness. The animals were housed individually.
The animals had free access to domestic quality drinking water during the study, but were typically fasted from overnight before dosing until approx 6-12 hours after dosing. The animals were weighed on arrival and on the days of dosing.
In the present studies the test substances were administered subcutaneously in approx 2 nmol/kg dose. The animals received a single subcutaneous injection. The subcutaneous injection was given on the right side of the neck, approximately 5-7 cm from the ear and 7-9 cm from the middle of the neck. The injections were given with a stopper on the needle, allowing approx 0.5 cm of the needle to be introduced. Each test substance was given to typically three but in some cases two or four animals.
A full plasma concentration-time profile, employing 12-16 sampling points, was obtained from each animal. In example blood samples were collected according to the following schedule:
After subcutaneous administration:
Predose (0), 0.5, 1, 2, 4, 6, 8, 12, 24, 48, 72, 96, 120, 168 and 240 hours after injection. In some cases also additional blood samples up to 288 hours post injection were taken.
At each sampling time, 0.5 to 2 ml of blood was drawn from each animal. The blood samples were taken via the central venous catheter.
The blood samples were collected into EDTA test tubes (i.e. Sarstedt Micro tube 1.3 mL K3E). Blood samples were kept on ice for max 20 min. before centrifugation. Plasma was separated using centrifugation (i.e. at 4° C., 10 min., 1500 G) and was immediately transferred to Micronic tubes. Approximately 200 μl plasma was transferred to each Micronic tube. The plasma was stored at −20° C. until assayed. The plasma samples were assayed for the content of amylin using an ELISA assay.
The plasma concentration-time profiles were analysed by a non-compartmental pharmacokinetic analysis (NCA) using WinNonlin Professional 5.0 (Pharsight Inc., Mountain View, Calif., USA). NCA was performed using the individual plasma concentration-time profiles from each animal. T½ is the terminal half-life=ln 2/λz and was determined from λz, the first order rate constant associated with the terminal (log-linear) portion of the curve, estimated by linear regression of time vs. log concentration.
ELISA Plasma Assay for Amylin Quantification
The human amylin ELISA is a monoclonal antibody-based sandwich immunoassay for determining amylin levels in human plasma. The capture antibody recognizes human amylin, amylin acid (deamidated amylin), a 1-20 fragment of amylin, but not reduced amylin.
The detection antibody binds to reduced or unreduced human amylin but not amylin acid and is complexed with streptavidin-alkaline phosphatase. The substrate, 4-methylumbelliferyl phosphate, is applied to the completed sandwich and the fluorescent signal, monitored at 355 nm/460 nm, is proportional to the amount of amylin present in the sample.

T1 sequence (O60896 24-148): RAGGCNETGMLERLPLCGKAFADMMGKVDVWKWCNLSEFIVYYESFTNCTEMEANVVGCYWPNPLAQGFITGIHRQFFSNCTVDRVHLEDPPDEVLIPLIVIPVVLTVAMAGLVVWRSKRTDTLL
T1 sequence (P30988 25-474): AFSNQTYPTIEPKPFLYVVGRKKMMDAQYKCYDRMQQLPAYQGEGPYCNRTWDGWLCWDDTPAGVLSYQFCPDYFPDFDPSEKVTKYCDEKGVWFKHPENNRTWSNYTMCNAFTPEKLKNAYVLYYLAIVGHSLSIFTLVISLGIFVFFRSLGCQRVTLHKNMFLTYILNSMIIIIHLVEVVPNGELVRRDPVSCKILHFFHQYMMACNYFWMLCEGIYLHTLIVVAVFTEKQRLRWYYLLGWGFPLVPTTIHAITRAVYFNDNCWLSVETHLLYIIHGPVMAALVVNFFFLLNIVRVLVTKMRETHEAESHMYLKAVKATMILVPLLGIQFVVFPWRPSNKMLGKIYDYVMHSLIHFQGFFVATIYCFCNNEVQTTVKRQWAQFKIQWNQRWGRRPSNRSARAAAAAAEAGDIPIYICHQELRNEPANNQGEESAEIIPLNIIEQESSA

Row | SMILES | EC50 [1] | half-life [2]
1 | CC[C@H](C)[C@H](NC(=O)[C@@H]1CCCN1C(=O)CNC(=O)[C@H](Cc1ccccc1)NC(=O)[C@H](CC(N)=O)NC(=O)[C@H](CC(N)=O)NC(=O)[C@H](CO)NC(=O)[C@H](CO)NC(=O)[C@H](Cc1c[nH]cn1)NC(=O)[C@H](Cc1c[nH]cn1)NC(=O)[C@H](CC(C)C)NC(=O)[C@H](Cc1ccccc1)NC(=O)[C@H](CC(N)=O)NC(=O)[C@H](C)NC(=O)[C@H](CC(C)C)NC(=O)[C@H](CCCNC(=N)N)NC(=O)[C@H](CCC(N)=O)NC(=O)[C@@H](NC(=O)[C@H](C)NC(=O)[C@@H]1CSSC[C@H](NC(=O)[C@H](Cc2c[nH]cn2)NC(=O)[C@H](Cc2c[nH]cn2)NC(=O)[C@H](Cc2c[nH]cn2)NC(=O)[C@H](CCC(=O)O)NC(=O)CC[C@H](NC(=O)CCCCCCCCCCCCCCCCCCC(=O)O)C(=O)O)C(=O)N[C@@H](CC(N)=O)C(=O)N[C@@H]([C@@H](C)O)C(=O)N[C@@H](C)C(=O)N[C@@H]([C@@H](C)O)C(=O)N1)[C@@H](C)O)C(=O)N[C@@H](CC(C)C)C(=O)N1CCC[C@H]1C(=O)N1CCC[C@H]1C(=O)N[C@H](C(=O)N[C@@H](CC(N)=O)C(=O)N[C@H](C(=O)NCC(=O)N[C@@H](CO)C(=O)N[C@@H](CC(N)=O)C(=O)N[C@H](C(=O)N[C@@H](Cc1ccc(O)cc1)C(N)=O)[C@@H](C)O)C(C)C)[C@@H](C)O [Example 54, N-alpha-[(S)-4-Carboxy-4-(19-carboxynonadecanoylamino)butyryl]-Glu-His-His-[His1,His17]-pramlintide] ({C20 diacid-γGlu}-EHHHCNTATCATQRLANFLHHSSNNFGPILPPTNVGSNTY-NH2; disulfide 5-10) | 100 pM | 53 h
2 | CC[C@H](C)[C@H](NC(=O)[C@@H]1CCCN1C(=O)CNC(=O)[C@H](Cc1ccccc1)NC(=O)[C@H](CC(N)=O)NC(=O)[C@H](CCC(N)=O)NC(=O)[C@H](CO)NC(=O)[C@H](CO)NC(=O)[C@H](Cc1c[nH]cn1)NC(=O)[C@H](CCCNC(=N)N)NC(=O)[C@H](CC(C)C)NC(=O)[C@H](Cc1ccccc1)NC(=O)[C@H](CC(N)=O)NC(=O)[C@H](C)NC(=O)[C@H](CC(C)C)NC(=O)[C@H](CCCNC(=N)N)NC(=O)[C@H](CCC(N)=O)NC(=O)[C@@H](NC(=O)[C@H](C)NC(=O)[C@@H]1CSSC[C@H](NC(=O)[C@H](CCCNC(=N)N)NC(=O)[C@H](Cc2c[nH]cn2)NC(=O)[C@H](Cc2c[nH]cn2)NC(=O)COCCOCCNC(=O)CC[C@H](NC(=O)CCCCCCCCCCCCCCCCCCC(=O)O)C(=O)O)C(=O)N[C@@H](CC(N)=O)C(=O)N[C@@H]([C@@H](C)O)C(=O)N[C@@H](C)C(=O)N[C@@H]([C@@H](C)O)C(=O)N1)[C@@H](C)O)C(=O)N[C@@H](CC(C)C)C(=O)N1CCC[C@H]1C(=O)N1CCC[C@H]1C(=O)N[C@H](C(=O)N[C@@H](CC(N)=O)C(=O)N[C@H](C(=O)NCC(=O)N[C@@H](CO)C(=O)N[C@@H](CC(N)=O)C(=O)N[C@H](C(=O)N[C@@H](Cc1ccc(O)cc1)C(N)=O)[C@@H](C)O)C(C)C)[C@@H](C)O [Example 65, N-alpha-[2-(2-{2-[4-(S)-Carboxy-4-(19-carboxynonadecanoylamino)butyrylamino]ethoxy}ethoxy)acetyl]-His-His-[Arg1,Arg17,Gln21]-pramlintide] ({C20 diacid-γGlu-AEEA}-HHRCNTATCATQRLANFLRHSSQNFGPILPPTNVGSNTY-NH2; disulfide 4-9) | 100 pM | 
3 | CC[C@H](C)[C@H](NC(=O)[C@@H]1CCCN1C(=O)CNC(=O)[C@H](Cc1ccccc1)NC(=O)[C@H](CC(N)=O)NC(=O)[C@H](CC(=O)O)NC(=O)[C@H](CO)NC(=O)[C@H](CO)NC(=O)[C@H](Cc1c[nH]cn1)NC(=O)[C@H](Cc1c[nH]cn1)NC(=O)[C@H](CC(C)C)NC(=O)[C@H](Cc1ccccc1)NC(=O)[C@H](CC(N)=O)NC(=O)[C@H](C)NC(=O)[C@H](CC(C)C)NC(=O)[C@H](CCCNC(=N)N)NC(=O)[C@H](CCC(N)=O)NC(=O)[C@@H](NC(=O)[C@H](C)NC(=O)[C@@H]1CSSC[C@H](NC(=O)[C@@H](N)CCCCN)C(=O)N[C@@H](CCCCNC(=O)[C@H](CCC(=O)O)NC(=O)[C@H](CCCNC(=N)N)NC(=O)[C@H](CCC(=O)O)NC(=O)[C@H](CCC(=O)O)NC(=O)CCCCCCCCCCCCCCCCCCC(=O)O)C(=O)N[C@@H]([C@@H](C)O)C(=O)N[C@@H](C)C(=O)N[C@@H]([C@@H](C)O)C(=O)N1)[C@@H](C)O)C(=O)N[C@@H](CC(C)C)C(=O)N1CCC[C@H]1C(=O)N1CCC[C@H]1C(=O)N[C@H](C(=O)N[C@@H](CC(N)=O)C(=O)N[C@H](C(=O)NCC(=O)N[C@@H](CO)C(=O)N[C@@H](CC(N)=O)C(=O)N[C@H](C(=O)N[C@@H](Cc1ccc(O)cc1)C(N)=O)[C@@H](C)O)C(C)C)[C@@H](C)O [Example 2, N-epsilon3-(19-carboxynonadecanoyl-Glu-Glu-Arg-Glu)-[Lys3,His17,Asp21]-pramlintide] (H-KCK([Glu-Arg-Glu-Glu-C20 diacid])TATCATQRLANFLHHSSDNFGPILPPTNVGSNTY-NH2; disulfide 2-7) | 900 pM | 
4 | CC[C@H](C)[C@H](NC(=O)[C@@H]1CCCN1C(=O)CNC(=O)[C@H](Cc1ccccc1)NC(=O)[C@H](CC(N)=O)NC(=O)[C@H](CC(N)=O)NC(=O)[C@H](CO)NC(=O)[C@H](CO)NC(=O)[C@H](Cc1c[nH]cn1)NC(=O)[C@H](Cc1c[nH]cn1)NC(=O)[C@H](CC(C)C)NC(=O)[C@H](Cc1ccccc1)NC(=O)[C@H](CC(=O)O)NC(=O)[C@H](C)NC(=O)[C@H](CC(C)C)NC(=O)[C@H](CCCNC(=N)N)NC(=O)[C@H](CCC(N)=O)NC(=O)[C@@H](NC(=O)[C@H](C)NC(=O)[C@@H]1CSSC[C@H](NC(=O)CC[C@H](NC(=O)CCCCCCCCCCCCCCCCCCC(=O)O)C(=O)O)C(=O)N[C@@H](CC(N)=O)C(=O)N[C@@H]([C@@H](C)O)C(=O)N[C@@H](C)C(=O)N[C@@H]([C@@H](C)O)C(=O)N1)[C@@H](C)O)C(=O)N[C@@H](CC(C)C)C(=O)N1CCC[C@H]1C(=O)N1CCC[C@H]1C(=O)N[C@H](C(=O)N[C@@H](CC(N)=O)C(=O)N[C@H](C(=O)NCC(=O)N[C@@H](CO)C(=O)N[C@@H](CC(N)=O)C(=O)N[C@H](C(=O)N[C@@H](Cc1ccc(O)cc1)C(N)=O)[C@@H](C)O)C(C)C)[C@@H](C)O [Example 43, N-alpha-[(S)-4-Carboxy-4-(19-carboxynonadecanoylamino)butyryl]-[Asp14,His17]-pramlintide (2-37)] ({C20 diacid-γGlu}-CNTATCATQRLADFLHHSSNNFGPILPPTNVGSNTY-NH2; disulfide 1-6) | 100 pM | 

From US8895504B2, “Amylin derivatives” (priority 2008, dated 2014)
